Measurements as given in PubChem BioAssay AID463206 (Broad Institute, 2010).
Active and inactive are the calls of the source.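 Rule for the calls: active = caspase luminescence falls with dose and the half-maximal concentration AC50 from the fitted curve is at or below a set limit; inconclusive = flat fit at 30 to 70% signal loss, or invalid fit; inactive = AC50 above the limit, or signal rises instead.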

The compounds below were run on INS-1E cytokine-induced caspase-3/7, Caspase-Glo luminescence, 48 h (assay: suppression of cytokine-driven beta-cell apoptosis – INS-1E rat cells, luminescence, orthogonal assay for beta-cell apoptosis protection project, dose response (AID 463206)).

Row | SMILES | AC50
1 | O=C(N/N=C/c1cc(Br)cc(Cl)c1O)c1ccc2c(c1)OCO2 | > 26 µM (inactive)
2 | COc1ccc2c(c1)[nH]c1c(N3CCN(Cc4ccc5c(c4)OCO5)CC3)ncnc12 | > 26 µM (inactive)
3 | CC1=NN(c2nc3ccccc3[nH]2)C(=O)C1Cc1ccccc1 (stereo not drawn) | > 26 µM (inactive)
4 | c1cnc(N2CCN(Cc3c[nH]c4ccccc34)CC2)nc1 | > 26 µM (inactive)
5 | Cc1ccccc1Oc1cc(-n2ncc(Cl)c(Cl)c2=O)ncn1 | > 26 µM (inactive)
6 | CC(=O)Nc1ccc(Nc2c3ccccc3nc3ccccc23)cc1 | 8.76 µM
7 | Cc1cccnc1Nc1nc(-c2ccccn2)cs1 | > 26 µM (inactive)
8 | Cc1ccc(-c2[nH]ncc2/C=N/n2c(COc3ccccc3C)nc3ccccc3c2=O)cc1 | > 26 µM (inactive)
9 | COc1ccc(NS(=O)(=O)c2ccc(-c3coc(C)n3)cc2)cc1OC | > 26 µM (inactive)
10 | Clc1ccc(C[n+]2c(-c3ccccc3)cc(-c3ccccc3)cc2-c2ccccc2)cc1 | > 12 µM (inactive)
11 | Cc1cccc(NC(=S)N/N=C/c2ccc([N+](=O)[O-])s2)c1 | > 26 µM (inactive)
12 | COc1ccc(C(=O)c2c(C(F)(F)F)oc3c2C(=O)c2ccccc2C3=O)cc1 | > 26 µM (inactive)
13 | CC(=O)C1=C(c2ccc(Br)cc2)C(=O)c2ccccc2C1=O | > 26 µM (inactive)
14 | CCn1c(C)c(C)c2cc(C(=O)N3CCc4ccccc4C3)ccc21 | > 26 µM (inactive)
15 | COc1ccc2nc(N=Nc3ccc(O)c4ccccc34)sc2c1 | > 26 µM (inactive)
16 | COc1ccc(CCNc2ccc(C(CC(N)=O)NC(=O)c3ccc(Br)cc3)cc2[N+](=O)[O-])cc1 (stereo not drawn) | > 26 µM (inactive)
17 | COC(=O)c1cccc(NC(=O)Nc2ccc(Cl)c(Cl)c2)c1 | > 26 µM (inactive)
18 | CC(Oc1ccc(Br)cc1)c1nc2c3ccccc3nc(=S)n2[nH]1 (stereo not drawn) | > 26 µM (inactive)
19 | Cn1c(-c2ccccc2)cc2c3no[n+]([O-])c3ccc21 | > 26 µM (inactive)
20 | CC(C(c1cccs1)c1c(N)n(C)c(=O)n(C)c1=O)[N+](=O)[O-] (stereo not drawn) | > 26 µM (inactive)
21 | Cn1ncnc2c(=O)n(C)c(=O)nc1-2 | > 26 µM (inactive)
22 | O=C1/C(=C\c2cccnc2)CN(Cc2ccccc2)C/C1=C\c1cccnc1 | > 26 µM (inactive)
23 | COc1ccc(S(=O)(=O)Nc2cc(SCC(=O)O)c(O)c3ccccc23)cc1 | > 26 µM (inactive)
24 | CCOc1ccc2nc(NC(=O)c3cccc(-c4cc5ccccc5oc4=O)c3)sc2c1 | > 26 µM (inactive)

Row | SMILES | AC50
25 | COc1ccc2nc(C)cc(N/N=C/c3ccc(F)cc3)c2c1 | > 26 µM (inactive)
26 | O=C(CNC(=O)c1ccc2c(c1)OCO2)N/N=C/c1cc(Br)ccc1O | > 26 µM (inactive)
27 | CC1CCC(C(C)C)C(OC(=O)Cn2c(-c3ccccc3)[n+](C)c3ccccc32)C1 (stereo not drawn) | > 26 µM (inactive)
28 | Cc1cc(NC2CCCCC2)nc(NCc2ccccc2)n1 | > 26 µM (inactive)
29 | CC(CNC(=O)c1ccc(OC2CCN(Cc3ccccn3)CC2)cc1)Oc1cccnc1 (stereo not drawn) | > 26 µM (inactive)
30 | O=C(NCC1COc2ccccc2O1)c1cccc(S(=O)(=O)NCc2ccccc2)c1 (stereo not drawn) | > 12 µM (inactive)
31 | Cc1cccc(NC2=C/C(=N/S(=O)(=O)c3cccs3)c3ccccc3C2=O)c1 | > 26 µM (inactive)
32 | CC(=O)c1ccc(N2CCN(S(=O)(=O)c3ccc4c(c3)CC(C)N4C(C)=O)CC2)cc1 (stereo not drawn) | > 26 µM (inactive)
33 | CCCCCCCCCCOC(=O)Cn1c(COc2ccc(OC)cc2)[n+](C)c2ccccc21 | > 26 µM (inactive)
34 | Cc1ccc(-c2nc(N/N=C/c3cccnc3)c3ccccc3n2)cc1 | > 26 µM (inactive)
35 | Oc1c(CN2CCOCC2)cc(COCc2ccccc2)c2cccnc12 | > 26 µM (inactive)
36 | CCc1ccc(Nc2n[n+](-c3ccccc3)c(-c3c(Cl)cccc3Cl)s2)cc1 | > 26 µM (inactive)
37 | c1ccc2c(NCCCN3CCOCC3)c3ccccc3nc2c1 | 7.15 µM
38 | COc1cccc(CN(C)C(=O)c2cc(COc3ccc4ncccc4c3)on2)c1 | > 26 µM (inactive)
39 | Cc1ccc(Cn2c(=N)n(CC(=O)c3ccccc3)c3ccccc32)cc1 | > 26 µM (inactive)
40 | c1ccc(-c2nc(N3CCCCCC3)c3ccccc3n2)nc1 | > 26 µM (inactive)
41 | COc1ccccc1/C=N/OCc1cc(C(C)=O)ccc1OC | > 26 µM (inactive)
42 | Cc1ccc(OCc2cc(C(=O)N(C)Cc3cc(C4CC4)n[nH]3)no2)cc1C | > 26 µM (inactive)
43 | c1ccc(N2CCN(c3nc(-c4ccccn4)nc4ccccc34)CC2)cc1 | > 26 µM (inactive)
44 | CC1CC(C)CN(S(=O)(=O)c2ccc(C(=O)NCCCn3ccnc3)cc2)C1 (stereo not drawn) | > 26 µM (inactive)
45 | Cc1nc(Nc2ccc(Cl)c(Cl)c2)sc1C(=O)Nc1ccccc1 | > 26 µM (inactive)
46 | CCOC(=O)N1CCN(S(=O)(=O)c2ccc(C(=O)NNc3nc4cc(C)cc(C)c4s3)cc2)CC1 | > 26 µM (inactive)
47 | C/C(=N\NC(=O)c1nnn(-c2nonc2N)c1-c1ccccc1)c1ccccc1O | > 26 µM (inactive)
48 | COc1ccccc1N1CCN(Cc2ccc(O)c3ncccc23)CC1 | > 26 µM (inactive)

Row | SMILES | AC50
49 | CC1=NOC(=O)/C1=C/c1ccc(-c2ccc(Cl)cc2)o1 | > 26 µM (inactive)
50 | CCOC(=O)CS(=O)(=O)c1nc(-c2ccccc2)cc(C(F)(F)F)n1 | > 26 µM (inactive)
51 | Nc1nc(-c2ccccn2)nc(N)c1Cc1c(F)cccc1Cl | > 26 µM (inactive)
52 | C=CCn1c(=NC(=O)c2cc(-c3cccs3)nc3ccccc23)sc2cc(S(N)(=O)=O)ccc21 | > 26 µM (inactive)
53 | CCO[C@H]1OC(C(=O)N2CCN(Cc3ccc4c(c3)OCO4)CC2)=C[C@@H](c2csc3ccccc23)[C@@H]1CCCO | > 26 µM (inactive)
54 | CNC[C@@H](Cc1ccccc1)NC[C@@H](CC1CCCCC1)NCCCc1ccccc1 | > 26 µM (inactive)
55 | O=C(CCC(=O)Nc1ccc(Cl)cc1Cl)N/N=C/c1ccc([N+](=O)[O-])o1 | > 26 µM (inactive)
56 | Cc1cccc2sc(NNC(=O)c3ccc(S(=O)(=O)N4CCc5ccccc5C4)cc3)nc12 | > 26 µM (inactive)
57 | O=C(c1ccco1)N1N=C(c2ccc(Br)cc2)CC1c1ccco1 (stereo not drawn) | > 26 µM (inactive)
58 | C=C(C=O)C[C@@H]1C[C@H](O)C2OC3C[C@]4(C)OC5/C=C\CC6OC7C(CC=CCC6OC5CCCC4OC3CC2O1)OC1CC2OC3CC(=O)OC3C[C@@H](C)C[C@@]2(C)OC1C[C@@H]7C (stereo partly drawn) | > 26 µM (inactive)
59 | COc1ccc(Cn2c(SCc3cc(C)ccc3C)nc3cc(OC)c(OC)cc3c2=N)cc1 | > 26 µM (inactive)
60 | COc1ccc(-c2csc(NC(=O)C3CCN(c4ncnc5sc(C)c(C)c45)CC3)n2)cc1OC | > 26 µM (inactive)
61 | CCOc1cc(/C=N/NC(=O)c2cc(-c3cccc(OC)c3)nc3ccccc23)ccc1O | > 26 µM (inactive)
62 | OC(c1cc(-c2ccc(Cl)cc2)nc2ccccc12)C1CCCCN1 (stereo not drawn) | > 26 µM (inactive)
63 | Cc1ccccc1CNc1ccc(C(CC(N)=O)NC(=O)c2ccc(Br)cc2)cc1[N+](=O)[O-] (stereo not drawn) | > 26 µM (inactive)
64 | CN(C)CCOc1ccc(-c2c(-c3ccccc3)sc3ccccc23)cc1 | > 26 µM (inactive)
65 | CCN(CC)c1ccc2nc3ccccc3[n+](CC)c2c1 | > 26 µM (inactive)
66 | CCC(=O)NC(c1ccc(C)cc1)c1cc(Cl)c2cccnc2c1O (stereo not drawn) | > 26 µM (inactive)
67 | C=CCCc1ccc(C#N)c(SCc2c(C(=O)OCC)c3cc(OC(C)=O)c(Br)cc3n2C)n1 | > 26 µM (inactive)
68 | Cc1occc1C(=O)N/N=C/c1c(O)ccc2ccccc12 | > 26 µM (inactive)
69 | C=C(C)C(=O)OCC(O)COc1ccc(C(C)(C)c2ccc(OCC(O)COC(=O)C(=C)C)cc2)cc1 (stereo not drawn) | > 26 µM (inactive)
70 | CCOc1ccccc1NC(=O)c1nc(S(=O)(=O)Cc2cccc(C)c2)ncc1Cl | > 26 µM (inactive)
71 | CN(C)CC(C(=O)c1ccccc1)c1ccccc1 (stereo not drawn) | > 26 µM (inactive)
72 | COc1cc(CN2CCN(c3cc(C)ccc3C)CC2)ccc1O | > 26 µM (inactive)

Row | SMILES | AC50
73 | Cc1ccccc1OCCn1c(C)nc2ccccc21 | > 26 µM (inactive)
74 | C/C(=N\NC(N)=S)c1ccncc1 | > 26 µM (inactive)
75 | Cc1ccc(NC2=C/C(=N/S(=O)(=O)c3cccs3)c3ccccc3C2=O)cc1C | > 26 µM (inactive)
76 | CCCC[n+]1ccn(C2=C([O-])c3ccccc3C(=O)/C2=N\S(=O)(=O)c2ccc(Br)cc2)c1 | > 26 µM (inactive)
77 | CCS(=O)(=O)c1ncc(Cl)c(C(=O)Nc2ccc(S(=O)(=O)N3CCC(C)CC3)cc2)n1 | > 26 µM (inactive)
78 | COc1ccc(Cc2nnc(N/N=C/c3ccc(O)cc3)[nH]c2=O)cc1OC | > 26 µM (inactive)
79 | Cc1ccc(NNC(=O)c2ccno2)cc1Cl | > 26 µM (inactive)
80 | CCOc1ccc(OCC)c(S(=O)(=O)NCCOC23CC4CC(CC(C4)C2)C3)c1 | 15.9 µM
81 | C[C@@H]1CN([C@H](C)CO)C(=O)c2cc(NC(=O)Nc3ccc(C(F)(F)F)cc3)ccc2O[C@H]1CN(C)S(=O)(=O)c1cccs1 | > 26 µM (inactive)
82 | Cc1ccc2nc(-c3ccc(-c4cccc(Cl)c4)cc3)c(NCc3ccccc3)n2c1 | > 26 µM (inactive)
83 | COc1ccc(/C(C)=N/Nc2nc(C)cc(-c3ccccc3)n2)cc1 | > 26 µM (inactive)
84 | Cc1c(Cl)c([N+](=O)[O-])nn1Cc1ccc(C(=O)N/N=C\c2cc(Cl)ccc2O)o1 | > 26 µM (inactive)
85 | O=C(N/N=C/c1ccc([N+](=O)[O-])o1)c1cc2ccccc2o1 | > 26 µM (inactive)
86 | CCOC(=O)C1=C(CCc2ccccc2)NC(=O)NC1c1ccc2ccccc2c1 (stereo not drawn) | > 26 µM (inactive)
87 | O=C(Nc1ccc(N2CCN(Cc3ccccc3Cl)CC2)cc1)c1cccnc1 | > 26 µM (inactive)
88 | COc1ccc(NS(=O)(=O)c2ccc(N3CCCCC3)c(N)c2)cc1 | > 26 µM (inactive)
89 | C/C(=N\N1C(=O)c2ccccc2NC1c1ccco1)c1ccccc1O (stereo not drawn) | > 26 µM (inactive)
90 | CC(=O)c1ccc(NC(=S)NC(C)c2ccc(Cl)cc2Cl)cc1 (stereo not drawn) | > 26 µM (inactive)
91 | Cc1ccccc1NC1=C/C(=N\S(=O)(=O)c2ccc(C(=O)O)cc2)c2ccccc2C1=O | > 26 µM (inactive)
92 | O=C(N/N=C/c1sc2ccccc2c1O)c1ccccc1 | > 26 µM (inactive)
93 | O=c1c2ccccc2nc(COc2ccccc2)n1/N=C/c1cc([N+](=O)[O-])ccc1O | > 26 µM (inactive)
